Test results published in the NIST ThermoML archive (doi:10.1021/je050223a).
± gives the expanded uncertainty stated by the source.

Assays:
[1] = xn = mol fraction of the nth substance listed; settings: 101.33 kPa, Liquid
[2] = 101.33 kPa, Liquid

C=C(C)C(=O)O [2-methyl-2-propenoic acid] + CCOCCC(=O)OCC
[1], x2 = 0
Settings | mass density [kg/m3] | viscosity [mPa·s]
298.15 K | 1009.5 ± 2.1 | 1.267 ± 0.029
308.15 K | 999.4 ± 2.1 | 1.078 ± 0.025
318.15 K | 989.2 ± 2.1 | 0.945 ± 0.022

C=C(C)C(=O)O [2-methyl-2-propenoic acid]
[2]
Settings | mass density [kg/m3] | viscosity [mPa·s]
298.15 K | 1009.5 ± 2.1 | 1.267 ± 0.029
308.15 K | 999.4 ± 2.1 | 1.078 ± 0.025
318.15 K | 989.2 ± 2.1 | 0.945 ± 0.022

C=C(C)C(=O)OCCO [2-hydroxyethyl 2-methyl-2-propenoate]
[2]
Settings | mass density [kg/m3] | viscosity [mPa·s]
298.15 K | 1067.1 ± 2.4 | 5.784 ± 0.14
308.15 K | 1057.7 ± 2.4 | 4.194 ± 0.1
318.15 K | 1048.6 ± 2.4 | 3.181 ± 0.078

CCOCCC(=O)OCC [ethyl β-ethoxypropionate] + C=C(C)C(=O)O
[1]
Settings | mass density, 298.15 K [kg/m3] | mass density, 308.15 K [kg/m3] | mass density, 318.15 K [kg/m3] | viscosity, 298.15 K [mPa·s] | viscosity, 308.15 K [mPa·s] | viscosity, 318.15 K [mPa·s]
x1 = 0.1 | 1000.5 ± 2.1 | 990.7 ± 2.1 | 980.6 ± 2 | 1.349 ± 0.031 | 1.139 ± 0.026 | 0.986 ± 0.023
x1 = 0.1999 | 992.4 ± 2.1 | 982.7 ± 2 | 972.8 ± 2 | 1.425 ± 0.033 | 1.198 ± 0.028 | 1.028 ± 0.024
x1 = 0.3 | 984.9 ± 2 | 975.1 ± 2 | 965.2 ± 2 | 1.504 ± 0.035 | 1.257 ± 0.029 | 1.075 ± 0.025
x1 = 0.4 | 978.1 ± 2 | 968.3 ± 2 | 958.4 ± 2 | 1.551 ± 0.036 | 1.293 ± 0.03 | 1.103 ± 0.026
x1 = 0.5 | 971.5 ± 2 | 961.7 ± 2 | 951.9 ± 2 | 1.516 ± 0.035 | 1.262 ± 0.029 | 1.08 ± 0.025
x1 = 0.6 | 965.3 ± 2 | 955.6 ± 2 | 945.7 ± 2 | 1.439 ± 0.033 | 1.211 ± 0.028 | 1.029 ± 0.024
x1 = 0.7 | 959.5 ± 2 | 949.8 ± 2 | 939.8 ± 2 | 1.369 ± 0.032 | 1.156 ± 0.027 | 0.982 ± 0.023
x1 = 0.8 | 954.1 ± 2 | 944.4 ± 2 | 934.4 ± 2 | 1.313 ± 0.03 | 1.108 ± 0.026 | 0.944 ± 0.022
x1 = 0.8999 | 948.5 ± 2 | 938.9 ± 2 | 929.1 ± 2 | 1.243 ± 0.029 | 1.049 ± 0.025 | 0.899 ± 0.021
x1 = 1 | 943.2 ± 2 | 933.4 ± 2 | 923.3 ± 2 | 1.176 ± 0.028 | 0.996 ± 0.023 | 0.859 ± 0.02

C=C(C)C(=O)OCc1ccccc1 [benzyl methacrylate]
[2]
Settings | mass density [kg/m3] | viscosity [mPa·s]
298.15 K | 1034.7 ± 2.4 | 2.302 ± 0.057
308.15 K | 1025.8 ± 2.4 | 1.885 ± 0.047
318.15 K | 1017 ± 2.3 | 1.58 ± 0.039

C=C(C)C(=O)OCc1ccccc1 [benzyl methacrylate] + CCOCCC(=O)OCC
[1], x2 = 0
Settings | mass density [kg/m3] | viscosity [mPa·s]
298.15 K | 1034.7 ± 2.4 | 2.302 ± 0.057
308.15 K | 1025.8 ± 2.4 | 1.885 ± 0.047
318.15 K | 1017 ± 2.3 | 1.58 ± 0.039

C=C(C)C(=O)OCCO [2-hydroxyethyl 2-methyl-2-propenoate] + CCOCCC(=O)OCC
[1], x2 = 0
Settings | mass density [kg/m3] | viscosity [mPa·s]
298.15 K | 1067.1 ± 2.4 | 5.784 ± 0.14
308.15 K | 1057.7 ± 2.4 | 4.194 ± 0.1
318.15 K | 1048.6 ± 2.4 | 3.181 ± 0.078

CCOCCC(=O)OCC [ethyl β-ethoxypropionate]
[2]
Settings | mass density [kg/m3] | viscosity [mPa·s]
298.15 K | 943.2 ± 2 | 1.176 ± 0.028
308.15 K | 933.4 ± 2 | 0.996 ± 0.023
318.15 K | 923.3 ± 2 | 0.859 ± 0.02

CCOCCC(=O)OCC [ethyl β-ethoxypropionate] + C=C(C)C(=O)OCCO
[1]
Settings | mass density, 298.15 K [kg/m3] | mass density, 308.15 K [kg/m3] | mass density, 318.15 K [kg/m3] | viscosity, 298.15 K [mPa·s] | viscosity, 308.15 K [mPa·s] | viscosity, 318.15 K [mPa·s]
x1 = 0.1 | 1053 ± 2.4 | 1043.6 ± 2.4 | 1034.4 ± 2.4 | 4.507 ± 0.11 | 3.352 ± 0.082 | 2.598 ± 0.063
x1 = 0.2 | 1039.1 ± 2.3 | 1029.6 ± 2.3 | 1020.3 ± 2.3 | 3.696 ± 0.089 | 2.821 ± 0.068 | 2.239 ± 0.054
x1 = 0.3 | 1025.6 ± 2.3 | 1016.1 ± 2.3 | 1006.6 ± 2.3 | 3.072 ± 0.074 | 2.379 ± 0.057 | 1.918 ± 0.046
x1 = 0.4 | 1012.7 ± 2.2 | 1003.1 ± 2.2 | 993.5 ± 2.2 | 2.503 ± 0.06 | 1.98 ± 0.047 | 1.611 ± 0.039
x1 = 0.5 | 1000.2 ± 2.2 | 990.5 ± 2.2 | 980.8 ± 2.2 | 2.156 ± 0.051 | 1.731 ± 0.041 | 1.425 ± 0.034
x1 = 0.6 | 988.1 ± 2.1 | 978.4 ± 2.1 | 968.6 ± 2.1 | 1.833 ± 0.043 | 1.495 ± 0.036 | 1.243 ± 0.03
x1 = 0.6999 | 976.5 ± 2.1 | 966.8 ± 2.1 | 956.9 ± 2.1 | 1.627 ± 0.038 | 1.34 ± 0.032 | 1.127 ± 0.027
x1 = 0.8 | 965.2 ± 2.1 | 955.5 ± 2.1 | 945.6 ± 2 | 1.417 ± 0.033 | 1.181 ± 0.028 | 1.007 ± 0.024
x1 = 0.9 | 954.3 ± 2 | 944.6 ± 2 | 934.6 ± 2 | 1.269 ± 0.03 | 1.065 ± 0.025 | 0.911 ± 0.022
x1 = 1 | 943.2 ± 2 | 933.4 ± 2 | 923.3 ± 2 | 1.176 ± 0.028 | 0.996 ± 0.023 | 0.859 ± 0.02

CCOCCC(=O)OCC [ethyl β-ethoxypropionate] + C=C(C)C(=O)OCc1ccccc1
[1]
Settings | mass density, 298.15 K [kg/m3] | mass density, 308.15 K [kg/m3] | mass density, 318.15 K [kg/m3] | viscosity, 298.15 K [mPa·s] | viscosity, 308.15 K [mPa·s] | viscosity, 318.15 K [mPa·s]
x1 = 0.1 | 1027 ± 2.3 | 1017.9 ± 2.3 | 1008.9 ± 2.3 | 2.16 ± 0.053 | 1.767 ± 0.043 | 1.479 ± 0.036
x1 = 0.2 | 1019.1 ± 2.3 | 1009.9 ± 2.3 | 1000.7 ± 2.3 | 2.027 ± 0.049 | 1.664 ± 0.041 | 1.398 ± 0.034
x1 = 0.3 | 1010.9 ± 2.3 | 1001.5 ± 2.2 | 992.1 ± 2.2 | 1.91 ± 0.046 | 1.571 ± 0.038 | 1.323 ± 0.032
x1 = 0.4 | 1002.3 ± 2.2 | 992.7 ± 2.2 | 983.2 ± 2.2 | 1.795 ± 0.043 | 1.48 ± 0.036 | 1.247 ± 0.03
x1 = 0.4999 | 993.4 ± 2.2 | 983.7 ± 2.2 | 974 ± 2.1 | 1.681 ± 0.04 | 1.391 ± 0.033 | 1.173 ± 0.028
x1 = 0.6 | 984.2 ± 2.1 | 974.4 ± 2.1 | 964.5 ± 2.1 | 1.569 ± 0.037 | 1.303 ± 0.031 | 1.101 ± 0.026
x1 = 0.7 | 974.7 ± 2.1 | 964.8 ± 2.1 | 954.7 ± 2.1 | 1.457 ± 0.034 | 1.215 ± 0.029 | 1.029 ± 0.025
x1 = 0.8 | 964.9 ± 2.1 | 954.9 ± 2.1 | 944.6 ± 2 | 1.347 ± 0.032 | 1.129 ± 0.027 | 0.961 ± 0.023
x1 = 0.9 | 954.3 ± 2 | 944.3 ± 2 | 934.1 ± 2 | 1.242 ± 0.029 | 1.047 ± 0.025 | 0.899 ± 0.021
x1 = 1 | 943.2 ± 2 | 933.4 ± 2 | 923.3 ± 2 | 1.176 ± 0.028 | 0.996 ± 0.023 | 0.859 ± 0.02

CCCCO [butan-1-ol]
[2]
Settings | mass density, 298.15 K [kg/m3] | mass density, 303.15 K [kg/m3] | mass density, 308.15 K [kg/m3] | mass density, 313.15 K [kg/m3] | viscosity, 298.15 K [mPa·s] | viscosity, 303.15 K [mPa·s] | viscosity, 308.15 K [mPa·s] | viscosity, 313.15 K [mPa·s]
Capillary tube (Ostwald / Ubbelohde) method | – | – | – | – | 2.566 ± 0.083 | 2.265 ± 0.073 | 1.998 ± 0.065 | 1.778 ± 0.058
Pycnometric method | 805.6 ± 2.7 | 802.1 ± 2.7 | 798 ± 2.6 | 794.5 ± 2.6 | – | – | – | –
